“Also recorded” adds a separate entry of the source.
Assays:
[1] = SBL liposome formation, diameter and PDI in various salts; assay type: physicochemical; set-up: key to Liposome diameter (nm): DNF=Did Not Form, no liposomes formed
Method: The five SBLs were first examined for their ability to make vesicles under standard buffer conditions (10 mM HEPES, 140 mM NaCl, pH 7.4). We observed that none of the five SBLs were able to form stable liposomes after thin film rehydration in this buffer followed by sonication at 80° C. […] To test if the SB headgroup inner salt interactions could be disrupted by an increase in salt concentration, the same liposome formation process was performed at increasing NaCl concentrations. Salts with different anions were also tested to determine if those predicted to have greater binding than Cl^− would allow for liposome formation at concentrations where NaCl was not able to. Liposome-formation results are shown in Table 4 for all five SBLs with a variety of salts and at various NaCl concentrations.
Liposome preparations were made at 26 mM lipid in 10 mM HEPES buffer, pH 7.4 with the specified salt concentration. All preparations were rehydrated and sonicated at 80° C. for 7 minutes, allowed to cool for 5 minutes and then measured.
Liposome diameters were measured both five minutes after sonication and at 24 hours. DPSB and DSSB in NaI both formed gels and could not be measured and DPSB and DSSB with KBr precipitated into particles too large and polydisperse for measurement.

[2] = Phase transition temperatures of sulfobetaine lipids (DSC); assay type: physicochemical; conditions: for inner/outer salt form (high/low transition) as function of NaCl concentration: DSC, 10 mM HEPES pH 7.4, NaCl up to 1M; for Transition Temperatures (° C.), SB Inner Salt: hypothesized inner salt form, observed high phase transition; for Transition Temperatures (° C.), SB Outer Salt: hypothesized outer salt form, observed low phase transition
Method: All buffers contain 10 mM HEPES, pH 7.4. Preparations were made at 26 mM SB lipid by thin film rehydration at 80° C., followed by brief 20 second bursts of sonication at 80° C. (˜2-4 times) to make dispersions of large bilayer fragments.
Based on our observations that SBL liposome formation and stability is largely dependent on salt composition and concentration we sought to determine if these effects changed the transition temperatures of the liposomes. The data in FIG. 3 clearly depicts a bi-modal phase transition behavior for the SBLs. Without salt, the majority of the SBLs are likely in one of the inner salt forms supported by the observed elevated transition temperatures.
Inner and outer salt conformations of the SBLs are hypothesized to coordinate to the observed high and low phase transitions, respectively.

[3] = Zeta/surface potential of SBL liposomes in salt solutions; assay type: physicochemical; conditions: order of anions; data not shown
Excerpt: The vesicles formed in these three salts were all reasonably small, with those formed in KBr having, on average, a slighter larger diameter. This may be due the weaker binding of Br^− to the cationic region of the SBLs relative to I^− and ClO4^−, which would result in a higher percentage of SBLs in the inner-salt conformation.

[4] = literature values, cited from earlier work
[5] = Zeta potential of liposomes as a function of calcium concentration; assay type: physicochemical; conditions: across physiological Ca2+ concentrations
Method: Liposomes were prepared from either DOPC or DOCPe and their zeta potentials were measured in a Malvern zetaNano instrument as a function of the calcium concentration. Liposomes prepared from either lipid become more positively charged as the Ca^2+ concentration increases.

[6] = 0 mM NaCl, 26 mM lipid, 10 mM HEPES pH 7.4
[7] = 150 mM KBr, five minutes after sonication
[8] = 150 mM NaCl, 26 mM lipid, 10 mM HEPES pH 7.4
[9] = 150 mM NaClO4, five minutes after sonication
[10] = 150 mM NaI, five minutes after sonication
[11] = 500 mM NaCl, 26 mM lipid, 10 mM HEPES pH 7.4
[12] = 1000 mM NaCl, 26 mM lipid, 10 mM HEPES pH 7.4

| Compound | Liposome diameter (nm) [1, 6] | Liposome diameter (nm) ([1]; 150 mM KBr (24 h)) | Liposome diameter (nm) [1, 7] | PDI [1, 7] | Liposome diameter (nm) [1, 8] | Liposome diameter (nm) ([1]; 150 mM NaClO4 (24 h)) | PDI ([1]; 150 mM NaClO4 (24 h)) | Liposome diameter (nm) [1, 9] | PDI [1, 9] | Liposome diameter (nm) ([1]; 150 mM NaF) | Liposome diameter (nm) ([1]; 150 mM NaI (24 h)) | Liposome diameter (nm) [1, 10] | PDI [1, 10] | Liposome diameter (nm) [1, 11] | PDI [1, 11] | Liposome diameter (nm) [1, 12] | PDI [1, 12] | further results |
| --- | --- | --- | --- | --- | --- | --- | --- | --- | --- | --- | --- | --- | --- | --- | --- | --- | --- | --- |
| CCCCCCCCCCCCCCCCCC(=O)OC[C@H](COP(=O)(O)OCCN)OC(=O)CCCCCCCCCCCCCCCCC [C18 PE] |  |  |  |  |  |  |  |  |  |  |  |  |  |  |  |  |  | Transition Temperatures (° C.), PE ([4]; PE headgroup): 74.4 °C |
| CCCCCCCCCCCCCCCCCC(=O)OCC(C[N+](C)(C)CCCS(=O)(=O)[O-])OC(=O)CCCCCCCCCCCCCCCCC (stereo not drawn) [DSSB] | DNF | Precipitated | 102.3 nm | 0.123 | DNF | 71.96 nm | 0.282 | 42.45 nm | 0.258 | DNF | Formed Gel | 43.31 nm | 0.231 | 122.7 nm | 0.285 | 137.9 nm | 0.404 | phase transitions observed ([2]; 150 mM NaF, NaCl, KBr, NaI, NaClO4): both transitions for all salts except NaClO4; inner/outer salt form (high/low transition) as function of NaCl concentration [2]: never exists completely as the inner salt conformation, but does reside as the outer salt form at 500 mM; also recorded: small low transition peak in a buffer without NaCl; Transition Temperatures (° C.), SB Inner Salt [2]: 68 °C; Transition Temperatures (° C.), SB Outer Salt [2]: 57 °C |
| CCCCCCCC/C=C\CCCCCCCC(=O)OCC(C[N+](C)(C)CCOP(=O)([O-])OCC)OC(=O)CCCCCCC/C=C\CCCCCCCC (stereo not drawn) [DOCPe] |  |  |  |  |  |  |  |  |  |  |  |  |  |  |  |  |  | zeta potential of liposomes [5]: remain negative |
| CCCCCCCC/C=C\CCCCCCCC(=O)OC[C@H](COP(=O)([O-])OCC[N+](C)(C)C)OC(=O)CCCCCCC/C=C\CCCCCCCC [DOPC, reference compound] |  |  |  |  |  |  |  |  |  |  |  |  |  |  |  |  |  | zeta potential of liposomes [5]: become positively charged |
| CCCCCCCCCCCCCC(=O)OC[C@H](COP(=O)([O-])OCC[N+](C)(C)C)OC(=O)CCCCCCCCCCCCC [C14 PC] |  |  |  |  |  |  |  |  |  |  |  |  |  |  |  |  |  | Transition Temperatures (° C.), PC ([4]; PC headgroup): 24.2 °C |

Second part, led by results:

| Liposome diameter (nm) [1, 6] | Liposome diameter (nm) ([1]; 150 mM KBr (24 h)) | Liposome diameter (nm) [1, 7] | PDI [1, 7] | Liposome diameter (nm) [1, 8] | Liposome diameter (nm) ([1]; 150 mM NaClO4 (24 h)) | PDI ([1]; 150 mM NaClO4 (24 h)) | Liposome diameter (nm) [1, 9] | PDI [1, 9] | Liposome diameter (nm) ([1]; 150 mM NaF) | Liposome diameter (nm) ([1]; 150 mM NaI (24 h)) | Liposome diameter (nm) [1, 10] | PDI [1, 10] | Liposome diameter (nm) [1, 11] | PDI [1, 11] | Liposome diameter (nm) [1, 12] | PDI [1, 12] | Compound | further results |
| --- | --- | --- | --- | --- | --- | --- | --- | --- | --- | --- | --- | --- | --- | --- | --- | --- | --- | --- |
| DNF | 31.67 nm | 28.53 nm | 0.160 | DNF | 43.68 nm | 0.24 | 41.76 nm | 0.239 | DNF | 38.69 nm | 35.3 nm | 0.232 | 63.92 nm | 0.385 | 76.8 nm | 0.233 | CCCCCCCCCCCCCC(=O)OCC(C[N+](C)(C)CCCS(=O)(=O)[O-])OC(=O)CCCCCCCCCCCCC (stereo not drawn) [DMSB] | PDI ([1]; 150 mM KBr (24 h)): 0.181; PDI ([1]; 150 mM NaI (24 h)): 0.250; liposome formation ([1]; 500 mM NaF): unable to form liposomes; phase transitions observed ([2]; 150 mM NaClO4): only the high transition; phase transitions observed ([2]; 150 mM NaF): only the low transition; inner/outer salt form (high/low transition) as function of NaCl concentration [2]: existing as the outer salt with a high transition temperature for all NaCl concentrations up to 1M; Transition Temperatures (° C.), SB Inner Salt [2]: 48 °C; Transition Temperatures (° C.), SB Outer Salt [2]: 25-30 °C; zeta-potential (surface potential) in various salt solutions [3]: most negative for ClO4^−>I^−>Br^−>Cl^− |
| DNF | 74.35 nm | 54.56 nm | 0.276 | 1728 nm | 37.32 nm | 0.251 | 30.46 nm | 0.205 | DNF | 39.24 nm | 28.93 nm | 0.163 | 41.7 nm | 0.296 | 56.5 nm | 0.361 | CCCCCCCCCCCC(=O)OCC(C[N+](C)(C)CCCS(=O)(=O)[O-])OC(=O)CCCCCCCCCCC (stereo not drawn) [DLSB] | ability to make vesicles under standard buffer conditions ([1]; 10 mM HEPES, 140 mM NaCl, pH 7.4, thin film rehydration, sonication at 80° C.): formed large, polydisperse structures; PDI ([1]; 150 mM KBr (24 h)): 0.254; PDI [1, 8]: 0.708; PDI ([1]; 150 mM NaI (24 h)): 0.215 |
